Patent publication US20020019421A1, “Compositions and therapy for substance addiction” (priority 2000, published 2002)
Values joined by “and” are separate entries in the source; they are usually repeats but may differ in a detail not shown here. Identical values can stand only once.

Columns and labels:
[1] = system: intestinal monoamine oxidase; assay: Intestinal monoamine oxidase activity maintained in mice; format: in vivo; settings: 0.6 mg/kg
Procedure: (§1) The inhibitor of monoamine oxidase inhibitor is administered in an effective amount, which is that amount necessary to alleviate, reduce, attenuate, or eliminate the symptoms associated with the addictive disorder, disorder or condition to be treated or to slow disease progression. The monoamine oxidase inhibitor can also be administered prophylactically, in order to prevent symptoms associated with the addicitve disorder or disease, or to delay onset of symptoms associated withdrawal or abstinence. If more than one inhibitor of monoamine oxidase inhibitor is used, the effective amount is that amount of the combination of inhibitor of monoamine oxidase inhibitors that is necessary to alleviate, reduce, eliminate, prevent, or delay onset of the symptoms associated with withdrawal or abstinence. The effective amount will be determined on an individual basis, and will be based in part, on consideration of the particular monoamine oxidase inhibitor, the individual's size and gender, the severity of the symptoms to be treated, the result sought, and the disease, disorder or condition to be treated or prevented. […] The effective amount can be determined by one of ordinary skill in the art, employing such factors and using no more than routine experimentation.

[2] = system: striatal monoamine oxidase; assay: Inhibition of striatal monoamine oxidase in mice; format: in vivo
Procedure: as §1

[3] = system: subjects addicted to chronic cigarette smoking; assay: Experiment One: prospective open trial, self-reported cigarette consumption after quit day
Procedure: An experimental clinical trial was performed to assess the effect of selegiline alone and in combination with co-administration of nicotine.
In this prospective open trial subjects addicted to chronic cigarette smoking were administered either oral selegiline tablets (Jumex, Janssen, Belgium) 5 mg. b.i.d. or administered, for subjects 8 and 9, combined co-administration of both oral selegiline and nicotine replacement therapy via transdermal patch. Subjects were then monitored for their level of tobacco product consumption during the course of the next 8 weeks. The study protocol relied on the subjective report of the patient for measurement of the therapy outcome, i.e. reporting of level of cigarette consumption was elicited from the participating subjects at weekly intervals intervals throughout the course of the study, unless the patient was using nictotine replacement therapy. Initial, trial entry levels of craving were determined by administration of the Fagerström Tolerance Score exam, while initial level of mood was monitored by administering the Beck Depression Inventory.
Following one week on the medication, the subjects were instructed to quit smoking on “quit day”, as predetermined at the initiation of the study.

[4] = system: smoking cessation; settings: cited from earlier work

C#CCN(C)CCCOc1ccc(Cl)cc1Cl [clorgyline]
intestinal monoamine oxidase activity maintained [1]: 50%
preferred effective amount to inhibit 90% of striatal monoamine oxidase while maintaining 50% of intestinal activity [2]: 0.6 mg/kg
inhibition of striatal monoamine oxidase ([2]; 0.6 mg/kg): 90%

CN1CCC[C@H]1c1cccnc1 [nicotine]
cigarettes consumed per week ([3]; week 1 from quit day, oral selegiline 5 mg b.i.d. and/or nicotine transdermal patch): 0 Cig/wk
cigarettes consumed per week ([3]; week 2 from quit day): 0 Cig/wk
cigarettes consumed per week ([3]; week 3 from quit day): 0 Cig/wk
cigarettes consumed per week ([3]; week 4 from quit day): 0 Cig/wk
cigarettes consumed per week ([3]; week 5 from quit day): 0 Cig/wk
cigarettes consumed per week ([3]; week 6 from quit day): 21 Cig/wk
cigarettes consumed per week ([3]; week 7 from quit day): 35 Cig/wk
cigarettes consumed per week ([3]; week 8 from quit day): 60 Cig/wk
success rate, nicotine patch alone ([4]; N. Eng J Med 1999, 340:685-91): 9.8%
success rate for smoking cessation, nicotine transdermal patch as sole therapy ([4]; current best accepted / known efficacy): about 20%

C#CCN(C)[C@H](C)Cc1ccccc1 [selegiline, (R)-(−)-N,2-dimethyl-N-2-propynylphenethylamine]
efficacy: subjects treated successfully (abstaining or significantly reducing cigarette smoking) ([3]; during treatment, Table 2): about 30%
outcome in words: effect on cigarette smoking ([3]; open trial, 8 weeks): effective treatment for substance addiction
cigarettes consumed per week ([3]; week 1 from quit day, oral selegiline 5 mg b.i.d. and/or nicotine transdermal patch, listed as S): 0 Cig/wk (3×) and 21 Cig/wk and 140 Cig/wk and 210 Cig/wk and 35 Cig/wk
cigarettes consumed per week ([3]; week 2 from quit day, listed as S): 0 Cig/wk (3×) and 21 Cig/wk and 70 Cig/wk
cigarettes consumed per week ([3]; week 3 from quit day, listed as S): 0 Cig/wk (2×) and 25 Cig/wk and 3 Cig/wk
cigarettes consumed per week ([3]; week 4 from quit day, listed as S): 0 Cig/wk (3×) and 25 Cig/wk
cigarettes consumed per week ([3]; week 5 from quit day, listed as S): 0 Cig/wk (2×) and 25 Cig/wk
cigarettes consumed per week ([3]; week 6 from quit day): 0 Cig/wk
cigarettes consumed per week ([3]; week 7 from quit day, listed as S): 0 Cig/wk (2×) and 21 Cig/wk
cigarettes consumed per week ([3]; week 8 from quit day, listed as S): 0 Cig/wk and 21 Cig/wk
cigarettes consumed per week ([3]; week 9 from quit day): 21 Cig/wk
